This note sets out measurements from patent publication US20090186838A1, “Amphotericin Derivatives” (Eidgenössische Technische Hochschule Zürich, priority 2006, published 2009).

≈ marks a conversion by molar mass, not a printed value.

One series relates to DSY-294 C. albican CI. Put plainly: MIC determination in Candida strain DSY-294. It is filed as cell-based, Candida albicans. The conditions noted are these: Candida albicans. As for the experimental part:
(§1) In Vitro Antifungal Activity. MIC values for various strains were determined in accordance with the standard protocol from the National Committee of Clinical Laboratory Standards but using YEPD liquid medium instead of RPMI-1640 medium (National Committee of Clinical Laboratory Standards (Reference Method for Broth Dilution Antifungal Susceptibility Testing of Yeast, M27-A2, Approved Standard-Second Edition, Volume 22, Number 15, 1995). AmB was used as a reference. The strains were cultivated overnight in 5 mL YEPD liquid medium at 30 to 37° C. (30° C. for the strain BY4741; 37° C. for the strain DSY1764) with constant shaking. The saturated cultures were diluted to an ODB600 of 0.1 (3×10P^7 cells/mL). Using 24 wells plate, each well was prepared by adding 1% (12 μL) of DMSO solution of the tested polyene macrolide with 1% (12 μL) yeast cells solution and completed with YEPD (1.176 mL). The plates were sealed with Parafilm and then incubated for 18 to 36 hours at 30 to 37° C. (18 hours at 30° C. for the strain BY4741; 36 hours at 37° C. for the strain DSY1764). The optical density was read at 600 nm using 1.5 mL cuvettes. The MIC value was defined as the drug concentration needed to inhibit growth, less than 5% compared to a drug-free culture.
(§2) MIC values of the polyene macrolides 3, 9 and 10 (Diamine-AmB and its ester and diamide derivative, respectively) in various Candida strains including an AmB-resistant strain C. albicans (DSY1764, with the genotype erg3AΔ::hisG/erg3BΔ::hisG erg11Δ::hisG/erg11Δ::hisG-URA3-hisG) were determined.

Another series relates to DSY-562 C. glabrata CI. Put plainly: MIC determination in Candida strain DSY-562. It is filed as cell-based. The conditions noted are these: Nakaseomyces glabratus. As for the experimental part:
as §1, §2

The test system of the next series is DSY-565 C. glabrata CI. Put plainly: MIC determination in Candida strain DSY-565. It is filed as cell-based. The conditions noted are these: Nakaseomyces glabratus. The method, then: as §1, §2
In the next series the test system is CAF2-1 C. albican wt. Put plainly: MIC determination in Candida strain CAF2-1. The class given is cell-based, Candida albicans. Conditions: Candida albicans. The method, then: as §1, §2
Series [1] has as its system DSY-1764 C. albican mutant erg3/11 (AmB-resistant strain). Put plainly: MIC determination in AmB-resistant Candida strain DSY-1764. It is filed as cell-based, Candida albicans. The conditions noted are these: Candida albicans, 36 h. The method, then:
as §1, §2

Series [2] can be described thus: K+ efflux assay, cholesterol containing vesicles. The conditions noted are these: for K+ efflux with cholesterol-containing vesicles: high concentration, 1.0 μM (FIG. 3b,d,f,h), compared with AmB (1a); for K+ efflux with cholesterol containing vesicles: lower concentration, 0.1 μM (FIG. 3a,c,e,g). The method, then: FIG. 3. K^+ efflux from vesicles (LUVET100) prepared from […] (POPC) (solid line) or POPC with sterols (dotted line) for ergosterol and (broken line) for cholesterol caused by AmB (1a) (FIGS. 3a,b) and AmB diamine 3 (FIG. 3c,d), AmB diamine ester 9 (FIG. 3e,f) and AmB diamine amide 10 (FIG. 3g,h), added in DMSO to a suspension of vesicles to give final concentrations of 0.1 μM (FIG. 3a,c,e,g) and 1.0 μM (FIG. 3b,d,f,h).
K+ efflux assay. The K^+ efflux measurements were made following a previously described procedure (Zumbuehl, A. et al., Angew. Chem. Int. Ed. 2004, 43, 5181-5185; Zumbuehl, A. et al., Org. Lett. 2004, 6, 3683-3686). The appropriate liposome suspensions were prepared using POPC, cholesterol and ergosterol. Then the liposomes were sized by extrusion through two 400 nm, 200 nm, and finally 100 nm pore size membrane. The resultant “100 nm” unilamellar liposomes were dialyzed against 600 mL of 150 mM NaCl, 5 mM HEPES (pH 7.4) buffer. After, the suspension was diluted with 150 mM NaCl, 5 mM HEPES (pH 7.4) buffer to 1 mM overall lipid concentration (phospholipids+sterols). For each efflux measurement 10 mL of this liposome suspension was placed in a small beaker. Potentiometric measurements were performed with a 16-channel electrode monitor in magnetically stirred solutions at ambient temperature. The reference electrode was a Metrohm double junction Ag/AgCl reference electrode with 3 M KCl as reference electrolyte and 1 M LiOAc as bridge electrolyte. After recording the amphotericin-induced potassium efflux, liposomes were lysed by adding sodium cholate (172 mg). The resulting reading (taken after 0.5 h) was used to quantify the 100% K+-release.
As described hereinbefore differential interaction between ergosterol found in fungal membranes and cholesterol in mammalian cells is considered the basis for the selectivity of AmB (1a) as an antifungal agent. The preferential stabilization of ion channel formation in the membrane by ergosterol ultimately results in electrolyte leakage which can be conveniently measured by K^+ efflux from sterol containing vesicles. To assess the interaction of the polyene macrolide derivatives of the invention with sterols, derivatives 3, 9 and 10 were examined in their ability to lead to K^+ efflux from large unilamellar vesicles (LUV) prepared from POPC (1-palmitoyl-2-oleoyl-sn-glycero-3-phosphocholine) admixed with sterols, mimicking conditions in natural biomembranes (FIG. 3). At high concentration (FIG. 3b,d,f,h), all compounds rapidly induce complete K^+ efflux from vesicles containing ergosterol (dotted line). […] This differentiation between ergosterol and cholesterol is consistent with the observation of reduced hemotoxicity of 3, 9 and 10.

The nature of the next series: Solubility assay. It is filed as physicochemical. The conditions noted are these: for solubility: PBS buffer, pH 7.2, aqueous buffer, kinetic from dmso stock, read-out: Solubility in water. The method, then: Solubility assay. The solubility assay was performed according to Lipinski, C. A. et al Advances Drug Delivery Reviews 2001, 46, 3-26. Typically, a compound of the invention was dissolved in DMSO at a concentration of 10 μg/μl. The so obtained solution was added in […] at 1 min intervals to 2.5 ml PBS buffer solution pH 7.2. These additions correspond to solubility increments of 5 μg/ml to a top value of 65 μg/ml. A total of 14 additions were made and each time increased UV absorbance from light scattering was measured at 600 nm. The precipitation point was calculated from a bilinear curve fit to the Absorbance (y axis) versus μl of DMSO (x axis) plot.
The solubility of the polyene macrolides of the invention in water was tested following the above described protocol. Clearly, all conjugates were more soluble in water then AmB.

The mark [3] stands for this setting: DMSO stock added to PBS buffer solution pH 7.2, precipitation point by light scattering at 600 nm.

With `C[C@@H]1[C@H](O)[C@@H](C)/C=C/C=C/C=C/C=C/C=C/C=C/C=C/[C@H](O[C@@H]2O[C@H](C)[C@@H](O)[C@H](N(CCCN)CCCN)[C@@H]2O)CC2O[C@](O)(C[C@@H](O)C[C@@H](O)[C@H](O)CC[C@@H](O)C[C@@H](O)CC(=O)O[C@H]1C)C[C@H](O)[C@H]2C(=O)NCCN` [compound 10, 16-(N′-(2-Aminoethyl)-carboxamide)-N,N-di-(3-aminopropyl)-AmB], the MIC stood at 1 µM (≈ 1.08 µg/mL) in the series on DSY-294 C. albican CI; 0.5 µM (≈ 0.54 µg/mL) against DSY-562 C. glabrata CI; 0.5 µM (≈ 0.54 µg/mL) against DSY-565 C. glabrata CI; 2 µM (≈ 2.16 µg/mL) in the series with CAF2-1 C. albican wt; 4 µM (≈ 4.32 µg/mL) in series [1]. In series [2], the “K+ efflux with cholesterol-containing vesicles” value is given as “significantly reduced efflux”. Further, in series [2], the “K+ efflux with cholesterol containing vesicles” value is given as “indistinguishable from background”. Moreover, the Solubility in water in the series “Solubility assay” (DMSO stock added to PBS buffer solution pH 7.2, precipitation point by light scattering at 600 nm, listed as Diamine-Amide 10) was found to be 0.04 mg/mL (≈ 37 µM). Also, the solubility in “Solubility assay” (setting [3]) was ≤ 0.04 mg/mL. Besides, the “solubility in water compared with AmB” value in “Solubility assay” (relative to AmB) is “four times more soluble”.
As for `COC(=O)[C@H]1[C@@H]2C[C@@H](O[C@@H]3O[C@H](C)[C@@H](O)[C@H](N(CCCN)CCCN)[C@@H]3O)/C=C/C=C/C=C/C=C/C=C/C=C/C=C/[C@H](C)[C@@H](O)[C@@H](C)[C@H](C)OC(=O)C[C@H](O)C[C@H](O)CC[C@@H](O)[C@H](O)C[C@H](O)C[C@](O)(C[C@@H]1O)O2` [compound 9, N,N-Di-(3-aminopropyl)-AmB Methyl Ester], the MIC against DSY-294 C. albican CI stood at 0.25 µM (≈ 0.263 µg/mL); against DSY-562 C. glabrata CI it was 0.25 µM (≈ 0.263 µg/mL); with DSY-565 C. glabrata CI, 0.25 µM (≈ 0.263 µg/mL); against CAF2-1 C. albican wt it was 0.5 µM (≈ 0.526 µg/mL); in series [1], 4 µM (≈ 4.21 µg/mL). In series [2], the “K+ efflux with cholesterol-containing vesicles” value is given as “significantly reduced efflux”. Besides, the “K+ efflux with cholesterol containing vesicles” value in series [2] is given as “indistinguishable from background”. Moreover, in the series “Solubility assay” (setting [3]), the solubility came out at 0.022 mg/mL (≈ 20.9 µM).

In general, MIC refers to the lowest concentration that inhibits growth of the organism. A low value points to inhibition by little substance. Broadly, the solubility is how much of the substance goes into solution per volume.
